Assay results published in US20070009532A1 (priority 2005, published 2007).

Key:
[1] = biological target: P450 isoenzyme 3A4 (Homo sapiens, UniProt P08684); conditions: cited from earlier work
[2] = biological target: T1, P-gp (Homo sapiens, UniProt P08183); test: substrate for P-gp efflux / duration of reversal activity in resistant cells; assay type: cell-based
T1 construct: relatively long duration of reversal activity in resistant cells even after the modulator has been withdrawn; endogenous in cells
T1 sequence (P08183 whole entry): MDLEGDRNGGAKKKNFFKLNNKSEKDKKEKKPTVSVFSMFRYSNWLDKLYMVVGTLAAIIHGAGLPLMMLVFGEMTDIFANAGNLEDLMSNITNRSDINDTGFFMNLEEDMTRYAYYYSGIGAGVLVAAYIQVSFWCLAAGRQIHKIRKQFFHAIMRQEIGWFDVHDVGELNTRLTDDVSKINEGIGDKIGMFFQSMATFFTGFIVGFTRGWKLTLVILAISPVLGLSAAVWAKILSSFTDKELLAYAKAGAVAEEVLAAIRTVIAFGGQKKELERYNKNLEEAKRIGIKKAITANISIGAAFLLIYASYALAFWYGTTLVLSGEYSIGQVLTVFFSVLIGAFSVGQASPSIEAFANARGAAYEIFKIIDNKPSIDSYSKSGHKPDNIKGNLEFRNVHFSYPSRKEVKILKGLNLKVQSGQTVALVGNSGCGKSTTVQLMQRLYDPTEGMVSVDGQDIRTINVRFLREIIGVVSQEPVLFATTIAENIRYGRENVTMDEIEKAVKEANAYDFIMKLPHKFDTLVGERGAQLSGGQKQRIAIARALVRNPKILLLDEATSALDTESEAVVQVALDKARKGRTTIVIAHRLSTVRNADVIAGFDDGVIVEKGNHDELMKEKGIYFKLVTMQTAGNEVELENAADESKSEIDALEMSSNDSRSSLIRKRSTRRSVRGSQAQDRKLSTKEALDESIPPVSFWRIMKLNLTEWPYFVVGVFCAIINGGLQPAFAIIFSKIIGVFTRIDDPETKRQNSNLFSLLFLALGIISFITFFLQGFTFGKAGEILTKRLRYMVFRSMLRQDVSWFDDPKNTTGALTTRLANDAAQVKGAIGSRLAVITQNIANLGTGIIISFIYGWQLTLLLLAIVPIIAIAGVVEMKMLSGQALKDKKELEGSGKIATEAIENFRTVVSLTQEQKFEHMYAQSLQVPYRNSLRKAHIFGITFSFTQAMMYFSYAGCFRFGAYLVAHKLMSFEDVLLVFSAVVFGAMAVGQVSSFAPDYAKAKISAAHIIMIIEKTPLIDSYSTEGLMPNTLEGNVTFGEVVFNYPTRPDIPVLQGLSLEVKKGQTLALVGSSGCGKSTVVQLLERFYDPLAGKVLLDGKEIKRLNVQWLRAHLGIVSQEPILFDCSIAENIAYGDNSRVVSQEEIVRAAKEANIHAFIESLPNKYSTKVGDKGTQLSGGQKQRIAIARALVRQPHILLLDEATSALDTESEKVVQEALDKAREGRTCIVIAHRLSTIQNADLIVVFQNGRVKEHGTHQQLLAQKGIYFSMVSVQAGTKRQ

[3] = pharmacokinetic interaction with co-administered oncolytics in preclinical models; assay type: in vivo; conditions: several oncolytics tested in preclinical models

Chain of P450 isoenzyme 3A4 (P08684 whole entry): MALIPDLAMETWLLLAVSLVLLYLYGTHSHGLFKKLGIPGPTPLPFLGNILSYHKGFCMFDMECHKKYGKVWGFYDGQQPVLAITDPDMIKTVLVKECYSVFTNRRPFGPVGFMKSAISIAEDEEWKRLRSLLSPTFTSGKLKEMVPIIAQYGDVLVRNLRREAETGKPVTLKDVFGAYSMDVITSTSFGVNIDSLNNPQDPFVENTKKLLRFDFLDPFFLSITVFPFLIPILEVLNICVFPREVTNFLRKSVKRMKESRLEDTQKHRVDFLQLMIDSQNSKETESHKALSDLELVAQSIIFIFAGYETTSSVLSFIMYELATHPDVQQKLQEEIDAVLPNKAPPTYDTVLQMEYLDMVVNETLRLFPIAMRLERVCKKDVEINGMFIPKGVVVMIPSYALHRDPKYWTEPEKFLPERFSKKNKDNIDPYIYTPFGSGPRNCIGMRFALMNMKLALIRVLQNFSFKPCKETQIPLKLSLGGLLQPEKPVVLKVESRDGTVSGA

Row | SMILES | substrate for P450 isoenzyme 3A4 [1] | substrate for P-gp efflux [2] | pharmacokinetic (PK) interactions with oncolytics [3]
1 | C/C=C/C[C@@H](C)C(=O)[C@H]1C(=O)N[C@@H](C(C)C)C(=O)N(C)CC(=O)N(C)[C@@H](CC(C)C)C(=O)N[C@@H](C(C)C)C(=O)N(C)[C@@H](CC(C)C)C(=O)N[C@@H](C)C(=O)N[C@H](C)C(=O)N(C)[C@@H](CC(C)C)C(=O)N(C)[C@@H](CC(C)C)C(=O)N(C)[C@@H](C(C)C)C(=O)N1C [valspodar] | substrates for the P450 isoenzyme 3A4 |  | 
2 | O[C@@H](COc1cccc2ncccc12)CN1CCN([C@@H]2c3ccccc3[C@@H]3[C@H](c4ccccc42)C3(F)F)CC1 [zosuquidar, (2R)-anti-5-3-[4-(10,11-difluoromethanodibenzosuber-5-y1)piperazin-1-y1]-2-hydroxypropoxy)quinoline] |  | does not appear to be a substrate for P-gp efflux | minimal pharmacokinetic (PK) interactions
3 | COc1cc(C(=O)C(=O)N2CCCC[C@H]2C(=O)OC(CCCc2cccnc2)CCCc2cccnc2)cc(OC)c1OC [biricodar] | substrates for the P450 isoenzyme 3A4 |  | 
